This note sets out measurements from ChEMBL document CHEMBL2073975, “Inflammatory cytokines, but not bile acids, regulate expression of murine hepatic anion transporters in endotoxemia” (J Pharmacol Exp Ther, 2002).

What all share (assay type): functional, organism-based
Data set [1] concerns the target T1, Solute carrier organic anion transporter family member 1A4 (Mus musculus, UniProt Q9EP96).
T1 sequence (Q9EP96 whole entry): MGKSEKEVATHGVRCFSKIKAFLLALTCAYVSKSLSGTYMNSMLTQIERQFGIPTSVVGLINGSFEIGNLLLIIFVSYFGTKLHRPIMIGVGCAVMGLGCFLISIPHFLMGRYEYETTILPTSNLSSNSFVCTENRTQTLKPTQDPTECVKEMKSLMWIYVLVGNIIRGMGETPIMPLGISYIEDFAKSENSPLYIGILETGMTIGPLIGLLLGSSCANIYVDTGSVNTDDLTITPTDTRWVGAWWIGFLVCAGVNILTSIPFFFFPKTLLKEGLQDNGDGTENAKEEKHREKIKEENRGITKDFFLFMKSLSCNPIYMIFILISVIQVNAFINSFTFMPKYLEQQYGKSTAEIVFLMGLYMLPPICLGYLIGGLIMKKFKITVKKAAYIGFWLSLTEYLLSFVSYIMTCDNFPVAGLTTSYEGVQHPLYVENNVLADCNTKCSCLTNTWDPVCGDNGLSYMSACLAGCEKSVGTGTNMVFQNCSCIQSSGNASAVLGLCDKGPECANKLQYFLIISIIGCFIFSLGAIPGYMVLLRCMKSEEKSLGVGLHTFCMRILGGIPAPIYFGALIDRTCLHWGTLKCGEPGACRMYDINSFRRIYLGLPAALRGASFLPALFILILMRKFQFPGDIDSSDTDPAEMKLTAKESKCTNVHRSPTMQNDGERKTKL
Put plainly: (§1) TP_TRANSPORTER: RT-PCR in vivo, liver of CD-1 mouse.

Data set [2] addresses Multidrug resistance-associated protein 1 (Mus musculus, UniProt O35379). The description is as §1.
The target of data set [3] is ATP-binding cassette sub-family C member 3 (Mus musculus, UniProt B2RX12). The data set is described as §1.
Data set [4] deals with T2, Solute carrier organic anion transporter family member 1A1 (Mus musculus, UniProt Q9QXZ6).
T2 sequence (Q9QXZ6 whole entry): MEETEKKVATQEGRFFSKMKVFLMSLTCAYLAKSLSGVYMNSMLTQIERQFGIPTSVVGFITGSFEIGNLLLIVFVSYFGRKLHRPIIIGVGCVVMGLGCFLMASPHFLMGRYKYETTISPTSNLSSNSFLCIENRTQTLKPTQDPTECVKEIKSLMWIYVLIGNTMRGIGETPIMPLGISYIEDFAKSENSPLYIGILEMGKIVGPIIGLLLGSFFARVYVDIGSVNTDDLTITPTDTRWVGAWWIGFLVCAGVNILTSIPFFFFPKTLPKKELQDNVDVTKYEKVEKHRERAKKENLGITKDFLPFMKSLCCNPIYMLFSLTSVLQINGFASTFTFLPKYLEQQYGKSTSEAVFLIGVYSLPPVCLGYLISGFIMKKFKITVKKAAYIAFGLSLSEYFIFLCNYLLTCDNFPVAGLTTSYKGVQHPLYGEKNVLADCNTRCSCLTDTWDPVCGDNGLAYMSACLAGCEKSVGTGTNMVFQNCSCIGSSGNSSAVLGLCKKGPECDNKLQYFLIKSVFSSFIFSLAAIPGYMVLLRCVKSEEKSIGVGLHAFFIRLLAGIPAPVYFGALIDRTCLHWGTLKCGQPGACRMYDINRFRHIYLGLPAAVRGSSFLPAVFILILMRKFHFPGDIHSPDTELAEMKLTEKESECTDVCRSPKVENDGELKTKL
The data set is described as §1.

The next data set addresses T3, Bile salt export pump (Mus musculus, UniProt Q9QY30).
T3 sequence (Q9QY30 whole entry): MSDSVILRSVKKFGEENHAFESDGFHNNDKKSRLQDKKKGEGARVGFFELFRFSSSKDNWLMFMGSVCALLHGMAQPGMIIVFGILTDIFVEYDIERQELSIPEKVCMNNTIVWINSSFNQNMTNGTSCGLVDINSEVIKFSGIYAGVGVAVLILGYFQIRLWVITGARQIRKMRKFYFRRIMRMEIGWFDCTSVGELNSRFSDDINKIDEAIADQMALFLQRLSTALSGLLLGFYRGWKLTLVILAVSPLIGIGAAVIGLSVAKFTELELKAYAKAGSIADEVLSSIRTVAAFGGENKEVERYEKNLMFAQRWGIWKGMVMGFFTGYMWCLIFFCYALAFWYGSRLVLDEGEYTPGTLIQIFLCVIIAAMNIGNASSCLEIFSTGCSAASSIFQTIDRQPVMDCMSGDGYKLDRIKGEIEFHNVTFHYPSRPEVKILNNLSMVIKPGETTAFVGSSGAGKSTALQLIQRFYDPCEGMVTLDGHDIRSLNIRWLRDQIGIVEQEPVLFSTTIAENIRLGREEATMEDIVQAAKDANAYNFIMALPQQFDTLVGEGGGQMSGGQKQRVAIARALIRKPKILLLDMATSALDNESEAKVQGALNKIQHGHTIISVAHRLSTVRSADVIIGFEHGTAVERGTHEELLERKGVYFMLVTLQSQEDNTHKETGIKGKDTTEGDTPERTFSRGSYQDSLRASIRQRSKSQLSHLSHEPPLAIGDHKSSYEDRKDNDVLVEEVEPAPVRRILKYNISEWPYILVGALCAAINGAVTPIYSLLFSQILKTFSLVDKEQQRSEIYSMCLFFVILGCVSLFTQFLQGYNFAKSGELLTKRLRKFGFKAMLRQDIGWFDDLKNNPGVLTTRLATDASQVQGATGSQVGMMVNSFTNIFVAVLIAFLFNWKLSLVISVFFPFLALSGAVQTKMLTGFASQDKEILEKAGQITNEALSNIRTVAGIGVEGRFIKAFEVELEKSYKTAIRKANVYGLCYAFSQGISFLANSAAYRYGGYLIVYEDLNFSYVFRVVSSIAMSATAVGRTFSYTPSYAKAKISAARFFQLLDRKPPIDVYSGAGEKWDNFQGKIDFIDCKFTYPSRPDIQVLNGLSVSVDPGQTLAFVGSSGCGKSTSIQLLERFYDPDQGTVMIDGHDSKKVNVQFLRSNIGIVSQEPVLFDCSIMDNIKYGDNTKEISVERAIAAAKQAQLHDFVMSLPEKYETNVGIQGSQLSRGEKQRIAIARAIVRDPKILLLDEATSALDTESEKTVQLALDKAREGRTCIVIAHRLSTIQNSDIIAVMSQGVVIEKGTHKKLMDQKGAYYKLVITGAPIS
The data set is described as §1.

Data set [5] has as its target ATP-binding cassette sub-family C member 2 (Mus musculus, UniProt Q8VI47). Described as §1.

ATP-binding cassette sub-family C member 3, sequence (B2RX12 whole entry): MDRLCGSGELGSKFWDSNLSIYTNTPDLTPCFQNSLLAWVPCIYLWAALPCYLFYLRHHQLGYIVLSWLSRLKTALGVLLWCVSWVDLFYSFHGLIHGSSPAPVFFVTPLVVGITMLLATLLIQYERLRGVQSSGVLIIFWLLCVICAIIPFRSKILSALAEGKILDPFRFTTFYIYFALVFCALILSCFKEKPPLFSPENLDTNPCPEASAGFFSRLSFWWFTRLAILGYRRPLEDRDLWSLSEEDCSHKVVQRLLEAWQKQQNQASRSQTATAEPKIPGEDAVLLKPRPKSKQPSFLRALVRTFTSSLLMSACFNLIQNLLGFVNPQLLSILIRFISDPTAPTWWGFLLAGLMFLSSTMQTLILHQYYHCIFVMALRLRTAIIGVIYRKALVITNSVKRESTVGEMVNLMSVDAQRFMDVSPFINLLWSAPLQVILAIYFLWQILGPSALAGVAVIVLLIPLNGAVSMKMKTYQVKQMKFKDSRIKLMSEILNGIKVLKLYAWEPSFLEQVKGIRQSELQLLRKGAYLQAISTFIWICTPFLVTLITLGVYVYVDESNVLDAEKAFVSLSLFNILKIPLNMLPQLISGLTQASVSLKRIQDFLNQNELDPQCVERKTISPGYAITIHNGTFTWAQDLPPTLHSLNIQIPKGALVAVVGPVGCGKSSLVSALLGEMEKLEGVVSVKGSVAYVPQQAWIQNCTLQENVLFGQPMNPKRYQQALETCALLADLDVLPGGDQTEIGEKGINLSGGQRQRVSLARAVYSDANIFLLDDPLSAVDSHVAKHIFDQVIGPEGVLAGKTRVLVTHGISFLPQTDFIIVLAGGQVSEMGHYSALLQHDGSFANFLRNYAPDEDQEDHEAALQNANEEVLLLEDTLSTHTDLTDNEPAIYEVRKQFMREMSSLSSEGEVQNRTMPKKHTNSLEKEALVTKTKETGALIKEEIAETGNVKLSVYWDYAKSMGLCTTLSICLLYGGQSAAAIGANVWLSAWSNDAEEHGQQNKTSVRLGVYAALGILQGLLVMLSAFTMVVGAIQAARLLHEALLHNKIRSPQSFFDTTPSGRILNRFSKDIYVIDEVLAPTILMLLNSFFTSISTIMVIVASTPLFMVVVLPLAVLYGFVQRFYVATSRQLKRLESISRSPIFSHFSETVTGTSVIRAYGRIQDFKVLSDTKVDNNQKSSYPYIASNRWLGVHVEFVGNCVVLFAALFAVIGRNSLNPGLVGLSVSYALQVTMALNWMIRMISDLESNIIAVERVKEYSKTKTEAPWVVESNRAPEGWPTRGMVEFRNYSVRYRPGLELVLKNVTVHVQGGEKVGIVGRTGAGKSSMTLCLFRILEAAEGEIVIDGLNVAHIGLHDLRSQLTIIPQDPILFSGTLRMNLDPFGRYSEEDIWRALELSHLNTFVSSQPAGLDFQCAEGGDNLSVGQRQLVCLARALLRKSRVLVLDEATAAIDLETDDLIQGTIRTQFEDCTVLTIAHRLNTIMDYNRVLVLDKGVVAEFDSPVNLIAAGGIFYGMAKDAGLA
ATP-binding cassette sub-family C member 2, sequence (Q8VI47 whole entry): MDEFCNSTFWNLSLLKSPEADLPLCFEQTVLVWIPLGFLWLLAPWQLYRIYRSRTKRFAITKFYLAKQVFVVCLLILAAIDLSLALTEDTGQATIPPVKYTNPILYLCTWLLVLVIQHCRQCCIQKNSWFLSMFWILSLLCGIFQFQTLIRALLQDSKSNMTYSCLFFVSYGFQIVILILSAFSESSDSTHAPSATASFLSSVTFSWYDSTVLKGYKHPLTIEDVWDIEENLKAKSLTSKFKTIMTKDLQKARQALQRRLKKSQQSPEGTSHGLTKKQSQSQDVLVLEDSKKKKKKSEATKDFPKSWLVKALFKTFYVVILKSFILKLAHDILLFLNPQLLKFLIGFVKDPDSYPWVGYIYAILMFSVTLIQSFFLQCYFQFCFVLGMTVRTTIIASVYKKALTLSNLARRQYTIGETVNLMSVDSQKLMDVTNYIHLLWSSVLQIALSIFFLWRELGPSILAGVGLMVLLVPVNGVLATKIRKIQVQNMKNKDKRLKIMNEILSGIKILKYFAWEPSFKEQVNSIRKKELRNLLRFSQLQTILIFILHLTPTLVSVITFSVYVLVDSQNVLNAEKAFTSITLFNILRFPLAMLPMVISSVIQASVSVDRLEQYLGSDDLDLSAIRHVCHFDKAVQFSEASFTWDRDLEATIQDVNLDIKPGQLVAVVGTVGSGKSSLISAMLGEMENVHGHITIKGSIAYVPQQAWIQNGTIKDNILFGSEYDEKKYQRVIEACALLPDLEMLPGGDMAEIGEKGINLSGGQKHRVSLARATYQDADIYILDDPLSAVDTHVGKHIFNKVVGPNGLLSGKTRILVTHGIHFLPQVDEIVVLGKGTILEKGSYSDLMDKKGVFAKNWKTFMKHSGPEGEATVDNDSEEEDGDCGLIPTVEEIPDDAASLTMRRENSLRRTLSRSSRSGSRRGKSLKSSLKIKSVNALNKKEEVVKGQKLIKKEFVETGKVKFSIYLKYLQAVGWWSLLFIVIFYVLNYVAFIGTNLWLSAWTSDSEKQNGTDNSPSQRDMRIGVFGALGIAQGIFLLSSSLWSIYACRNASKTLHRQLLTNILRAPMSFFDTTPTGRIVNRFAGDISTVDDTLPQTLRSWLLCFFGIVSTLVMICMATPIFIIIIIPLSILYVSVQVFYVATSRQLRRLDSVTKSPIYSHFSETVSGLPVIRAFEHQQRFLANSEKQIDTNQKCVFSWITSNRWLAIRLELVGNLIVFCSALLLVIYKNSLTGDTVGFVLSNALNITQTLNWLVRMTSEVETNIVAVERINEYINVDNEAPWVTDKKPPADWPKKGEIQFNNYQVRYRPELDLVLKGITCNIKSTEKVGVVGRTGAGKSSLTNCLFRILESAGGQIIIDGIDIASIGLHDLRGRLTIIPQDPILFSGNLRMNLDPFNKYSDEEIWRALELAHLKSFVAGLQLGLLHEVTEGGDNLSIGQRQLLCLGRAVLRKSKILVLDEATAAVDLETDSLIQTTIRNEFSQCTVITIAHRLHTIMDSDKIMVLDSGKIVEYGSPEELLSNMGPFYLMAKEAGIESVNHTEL
Multidrug resistance-associated protein 1, sequence (O35379 whole entry): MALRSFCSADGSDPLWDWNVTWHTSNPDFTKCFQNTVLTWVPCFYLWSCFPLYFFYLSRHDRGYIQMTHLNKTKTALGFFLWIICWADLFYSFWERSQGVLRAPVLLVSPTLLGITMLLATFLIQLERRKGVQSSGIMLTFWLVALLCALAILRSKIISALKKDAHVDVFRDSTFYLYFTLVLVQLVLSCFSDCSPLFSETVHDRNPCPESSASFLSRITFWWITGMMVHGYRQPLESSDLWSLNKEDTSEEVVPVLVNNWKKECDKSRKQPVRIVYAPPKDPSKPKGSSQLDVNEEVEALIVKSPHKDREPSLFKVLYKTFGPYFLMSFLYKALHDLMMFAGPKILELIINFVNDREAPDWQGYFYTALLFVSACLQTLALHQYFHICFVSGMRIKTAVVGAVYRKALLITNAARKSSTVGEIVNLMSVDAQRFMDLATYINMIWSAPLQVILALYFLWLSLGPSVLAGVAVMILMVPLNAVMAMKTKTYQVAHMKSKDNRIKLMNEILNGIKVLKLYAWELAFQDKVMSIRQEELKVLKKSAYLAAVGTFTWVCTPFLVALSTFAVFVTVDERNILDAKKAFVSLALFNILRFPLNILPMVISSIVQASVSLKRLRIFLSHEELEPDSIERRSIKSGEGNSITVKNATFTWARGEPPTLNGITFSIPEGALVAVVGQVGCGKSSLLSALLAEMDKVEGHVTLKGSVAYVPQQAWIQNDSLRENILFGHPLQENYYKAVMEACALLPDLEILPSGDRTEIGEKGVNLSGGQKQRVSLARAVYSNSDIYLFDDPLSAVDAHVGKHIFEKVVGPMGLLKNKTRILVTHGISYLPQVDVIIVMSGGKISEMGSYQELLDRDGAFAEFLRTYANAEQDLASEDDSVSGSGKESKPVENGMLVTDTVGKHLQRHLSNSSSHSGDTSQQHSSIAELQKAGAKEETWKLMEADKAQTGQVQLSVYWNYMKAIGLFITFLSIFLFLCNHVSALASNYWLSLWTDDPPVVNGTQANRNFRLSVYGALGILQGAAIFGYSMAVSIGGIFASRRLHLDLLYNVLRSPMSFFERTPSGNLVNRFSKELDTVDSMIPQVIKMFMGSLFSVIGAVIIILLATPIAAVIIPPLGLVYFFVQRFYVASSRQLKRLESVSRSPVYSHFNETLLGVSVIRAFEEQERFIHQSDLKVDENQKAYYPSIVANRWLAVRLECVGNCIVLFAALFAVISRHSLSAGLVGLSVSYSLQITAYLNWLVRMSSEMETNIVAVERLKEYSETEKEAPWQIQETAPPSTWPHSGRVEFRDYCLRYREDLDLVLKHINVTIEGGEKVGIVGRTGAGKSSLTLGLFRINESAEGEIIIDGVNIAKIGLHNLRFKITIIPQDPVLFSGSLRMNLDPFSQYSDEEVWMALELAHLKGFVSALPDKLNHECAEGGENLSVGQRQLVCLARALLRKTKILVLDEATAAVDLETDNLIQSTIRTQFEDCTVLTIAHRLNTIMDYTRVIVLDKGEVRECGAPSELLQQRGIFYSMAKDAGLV

`CCCCCCCCCCCCCC(=O)OC(CCCCCCCCCCC)CC(=O)OC1C(NC(=O)CC(CCCCCCCCCCC)OC(=O)CCCCCCCCCCC)C(OC2CC(OC(=O)CC(O)CCCCCCCCCCC)C(NC(=O)CC(O)CCCCCCCCCCC)C(O)O2)OC(CO)C1OP(=O)(O)O` (stereo not given): the Activity entry was “inducer [Decrease]” in data set [1]; “is not an inducer [-]” in data set [2]; “inducer [Decrease]” in data set [3]; “inducer [Decrease]” in data set [4]; “inducer [Decrease]” at Bile salt export pump; “inducer [Decrease]” in data set [5].
As for `C[C@H](CCC(=O)NCCS(=O)(=O)O)[C@H]1CC[C@H]2[C@@H]3CC[C@@H]4C[C@H](O)CC[C@]4(C)[C@H]3C[C@H](O)[C@]12C` [TAURODEOXYCHOLIC ACID], the Activity entry was “is not an inducer [-]” in data set [1]; “is not an inducer [-]” in data set [2]; “is not an inducer [-]” in data set [4]; “inducer [+]” at Bile salt export pump; “is not an inducer [-]” in data set [5].
Turning to INTERLEUKIN 1BETA, the Activity entry in data set [1] was “inducer [Decrease]”; in data set [3], “is not an inducer [-]”; in data set [4] it was “inducer [Decrease]”; on Bile salt export pump, “inducer [Decrease]”; in data set [5], “inducer [Decrease]”.
With INTERLEUKIN 6, the Activity result (in data set [1]; in data set [4]; on Bile salt export pump; in data set [5]) was “inducer [Decrease]” in each case.
As to TURPENTINE, the Activity result in data set [1] was “inducer [Decrease]”; in data set [3], “is not an inducer [-]”; in data set [4], “inducer [Decrease]”; on Bile salt export pump it was “inducer [Decrease]”; in data set [5], “inducer [Decrease]”.
